Test results published in PMC9845987 (Cancer research, 2023).
pIC50: −log10 of the molar value. Like-named read-outs stand apart in the source and are kept apart here. Each block holds one compound with its values, some of them ahead of it.

Columns and labels:
p-4EBP1^T37/46 = experiment: Quantitative immunofluorescence of p-4EBP1 in MeWo cells; assay type: cell-based, human; details: 6 h, different concentrations
p-AKT^S473 = experiment: Quantitative immunofluorescence of p-AKT in MeWo cells; assay type: cell-based, human; details: 6 h, different concentrations
p-ERK^T202/Y204 = experiment: Quantitative immunofluorescence of p-ERK in MeWo cells; assay type: cell-based, human; details: 6 h, different concentrations
[1] = test system: NF1^LoF melanoma cell lines; experiment: Growth rate inhibition assay; assay type: cell-based, human; details: for Overall drug sensitivity (area over the dose-response curve): NF1^LoF cell lines; for Normalized growth rate (DIP rate) dose response: nine NF1^LoF melanoma cell lines, 7 day-averaged, four concentrations
SYK = SYK (Homo sapiens, UniProt P43405); experiment: Biochemical kinase inhibition assay
DNA-PK = DNA-PK (Homo sapiens, UniProt P78527); experiment: Biochemical kinase inhibition assay; details: 10 μM
PI4KB = PI4KB (Homo sapiens, UniProt Q9UBF8); experiment: Biochemical kinase inhibition assay; details: 10 μM
mTOR = mTOR (Homo sapiens, UniProt P42345); experiment: Biochemical kinase inhibition assay; details: 10 μM
MeWo cells = details: R406 3.16 μM, 72 h
YUHEF cells = details: R406 3.16 μM, 72 h
[2] = test system: p-EGFR^Y1068 in WM3918 xenograft tumors; experiment: Xenograft pharmacodynamic Western blot; assay type: in vivo, mouse; details: single dose 100 mg/kg IP; 0.5 h after dosing
[3] = test system: p-AKT^S473 in WM3918 xenograft tumors; experiment: Xenograft pharmacodynamic Western blot; assay type: in vivo, mouse; details: single dose 100 mg/kg IP; 0.5 h after dosing
COLO792 xenografts = experiment: In vivo xenograft assay, COLO792; design: species or system mouse; details: 50 mg/kg IP
[4] = test system: human epidermal primary melanocytes (NHEM-Ad); experiment: Growth rate inhibition assay, primary melanocytes; assay type: cell-based; details: highest concentration (1 μM)
p-BLNK^Y96 = experiment: Western blot of p-BLNK in IgM-stimulated Ramos cells; assay type: cell-based, human; details: 6 h
WM3918 xenografts = experiment: In vivo xenograft assay, WM3918; design: species or system mouse; details: 50 mg/kg IP

Compound: COc1ccc(-c2ccc3c(N4CCOC[C@@H]4C)nc(N4CCOC[C@@H]4C)nc3n2)cc1CO [AZD8055]
Change in p-4EBP1^T37/46 levels (p-4EBP1^T37/46): potently reduced
Change in p-AKT^S473 levels (p-AKT^S473): decreased p-AKT levels in a dose-dependent manner
Change in p-ERK^T202/Y204 levels (p-ERK^T202/Y204): no significant effect

Compound: Cc1nc(-c2nc(-c3ccc(OC(F)(F)F)cc3)no2)nn1Cc1cccc(N2CCC(S(C)(=O)=O)CC2)c1 [IACS-010759]
Overall drug sensitivity (area over the dose-response curve) [1]: similarly sensitive to both IACS-010759 and MTX-216
Growth inhibition (live cell count, normalized growth rate) ([1]; all tested NF1^LoF cell lines, indicated doses): inhibited growth in a dose-dependent fashion

pIC50 (SYK; SYK IC50, 0.5 nM to 10 μM, ATP at Km,app): ~5.22
inhibition at 10 µM (SYK; read-out: % inhibition of SYK): 52%
Inhibition of DNA-PK (DNA-PK): inhibited
Inhibition of PI4KB (PI4KB): inhibited
Inhibition of mTOR (mTOR): inhibited
Compound: CS(=O)(=O)Nc1cc(-c2ccc3ncnc(Nc4ccc(F)c(Cl)c4)c3c2)cnc1Cl [MTX-211, N-(2-chloro-5-(4-((3-chloro-4-fluorophenyl)amino)quinazolin-6-yl)pyridin-3-yl)methanesulfonamide]
Change in p-4EBP1^T37/46 levels (p-4EBP1^T37/46): did not decrease p-4EBP1 levels at concentrations below 1 μM
Change in p-AKT^S473 levels (p-AKT^S473): decreased p-AKT levels in a dose-dependent manner
Change in p-ERK^T202/Y204 levels (p-ERK^T202/Y204): no significant effect

Compound: COc1cc(Nc2ncc(F)c(Nc3ccc4c(n3)NC(=O)C(C)(C)O4)n2)cc(OC)c1OC [R406]
p-S6 and Ki-67 levels (MeWo cells): reduced p-S6 and Ki-67
Reduction of growth rate ([1]; MeWo, YUHEF and WM3918, R406 at 3.16 μM, 7-day): approximately 2 fold
p-S6 and Ki-67 levels (YUHEF cells): reduced p-S6 and Ki-67

Compound: CS(=O)(=O)N1CCN(Cc2cc3nc(-c4cccc5[nH]ncc45)nc(N4CCOCC4)c3s2)CC1 [pictilisib]
Change in p-4EBP1^T37/46 levels (p-4EBP1^T37/46): did not decrease p-4EBP1 levels at concentrations below 1 μM
Change in p-AKT^S473 levels (p-AKT^S473): decreased p-AKT levels in a dose-dependent manner
Change in p-ERK^T202/Y204 levels (p-ERK^T202/Y204): no significant effect

Compound: CC(=O)Nc1cccc(-n2c(=O)n(C3CC3)c(=O)c3c(Nc4ccc(I)cc4F)n(C)c(=O)c(C)c32)c1 [trametinib]
Change in p-4EBP1^T37/46 levels (p-4EBP1^T37/46): no effect
Normalized growth rate (DIP rate) dose response [1]: potent but less efficacious responses
Change in p-AKT^S473 levels (p-AKT^S473): but not trametinib, decreased p-AKT levels
Change in p-ERK^T202/Y204 levels (p-ERK^T202/Y204): reduced ERK phosphorylation in a dose-dependent manner

Compound: CC(C)Nc1cc(-c2c[nH]c(C(=O)N[C@H](CO)c3cccc(Cl)c3)c2)c(Cl)cn1 [ulixertinib]
Normalized growth rate (DIP rate) dose response [1]: potent but less efficacious responses

% inhibition of SYK (SYK; 10 μM, ATP at Km,app): 94%
Potency on SYK relative to MTX-211 (SYK; ratio of IC50): ~ 21 fold
pIC50 (SYK; read-out: SYK IC50, 0.5 nM to 10 μM, ATP at Km,app): 6.55
Inhibition of DNA-PK (DNA-PK): inhibited
Inhibition of PI4KB (PI4KB): inhibited
Inhibition of mTOR (mTOR): inhibited
Compound: N-(2-chloro-5-(4-((3-chloro-4-fluorophenyl)amino)-3-cyanoquinolin-6-yl)pyridin-3-yl)methanesulfonamide [MTX-216]
p-EGFR levels in excised tumors [2]: significant reduction
p-AKT levels in excised tumors [3]: significant reduction
Change in p-4EBP1^T37/46 levels (p-4EBP1^T37/46): did not decrease p-4EBP1 levels at concentrations below 1 μM
Body weight (COLO792 xenografts): no major loss in body weight
Tumor growth (COLO792 xenografts; 20 days): suppressed tumor growth
Cytotoxicity (normalized growth rate) [4]: no cytotoxicity
Inhibition of p-BLNK^Y96 levels (p-BLNK^Y96): more efficient in inhibition of p-BLNK in comparison with MTX-211
Overall drug sensitivity (area over the dose-response curve) [1]: similarly sensitive to both IACS-010759 and MTX-216
Normalized growth rate (DIP rate) dose response [1]: consistently cytotoxic
Body weight (WM3918 xenografts): no major loss in body weight
Tumor growth (WM3918 xenografts; 11 days): suppressed tumor growth
Change in p-AKT^S473 levels (p-AKT^S473): decreased p-AKT levels in a dose-dependent manner
Change in p-ERK^T202/Y204 levels (p-ERK^T202/Y204): no significant effect
